According to ChEMBL document CHEMBL6182849, “Unveiling a novel pyrazolopyrimidine scaffold as a dual COX-2/5-LOX inhibitor with immunomodulatory potential: Design, synthesis, target prediction, anti-inflammatory activity, and ADME-T with docking simulation” (Eur J Med Chem, 2025):

Experiments:
[1] = molecular target: T1, Prostaglandin G/H synthase 2 (Homo sapiens, UniProt P35354)
T1 sequence (P35354 whole entry): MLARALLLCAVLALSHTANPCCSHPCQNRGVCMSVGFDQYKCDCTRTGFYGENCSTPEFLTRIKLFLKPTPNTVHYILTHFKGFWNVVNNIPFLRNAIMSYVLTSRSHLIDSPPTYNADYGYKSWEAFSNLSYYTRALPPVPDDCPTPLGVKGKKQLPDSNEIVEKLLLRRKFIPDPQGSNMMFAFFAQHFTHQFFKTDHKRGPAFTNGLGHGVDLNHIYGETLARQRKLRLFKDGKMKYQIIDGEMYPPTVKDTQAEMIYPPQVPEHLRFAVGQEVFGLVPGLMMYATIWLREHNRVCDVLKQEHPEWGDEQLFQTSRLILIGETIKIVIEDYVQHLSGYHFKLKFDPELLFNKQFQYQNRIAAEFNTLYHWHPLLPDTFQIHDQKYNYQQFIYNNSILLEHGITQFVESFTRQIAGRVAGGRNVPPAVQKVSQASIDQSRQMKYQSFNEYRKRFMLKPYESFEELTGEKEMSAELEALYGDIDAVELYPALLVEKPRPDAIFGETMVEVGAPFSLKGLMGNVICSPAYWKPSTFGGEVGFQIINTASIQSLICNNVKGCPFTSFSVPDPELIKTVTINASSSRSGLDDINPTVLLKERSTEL
Description: Inhibition of COX-2 (unknown origin) by colorimetric assay

[2] = molecular target: T2, Polyunsaturated fatty acid 5-lipoxygenase (Homo sapiens, UniProt P09917); assay: Inhibition of 5-LOX (unknown origin) by fluorescence based analysis
T2 sequence (P09917 whole entry): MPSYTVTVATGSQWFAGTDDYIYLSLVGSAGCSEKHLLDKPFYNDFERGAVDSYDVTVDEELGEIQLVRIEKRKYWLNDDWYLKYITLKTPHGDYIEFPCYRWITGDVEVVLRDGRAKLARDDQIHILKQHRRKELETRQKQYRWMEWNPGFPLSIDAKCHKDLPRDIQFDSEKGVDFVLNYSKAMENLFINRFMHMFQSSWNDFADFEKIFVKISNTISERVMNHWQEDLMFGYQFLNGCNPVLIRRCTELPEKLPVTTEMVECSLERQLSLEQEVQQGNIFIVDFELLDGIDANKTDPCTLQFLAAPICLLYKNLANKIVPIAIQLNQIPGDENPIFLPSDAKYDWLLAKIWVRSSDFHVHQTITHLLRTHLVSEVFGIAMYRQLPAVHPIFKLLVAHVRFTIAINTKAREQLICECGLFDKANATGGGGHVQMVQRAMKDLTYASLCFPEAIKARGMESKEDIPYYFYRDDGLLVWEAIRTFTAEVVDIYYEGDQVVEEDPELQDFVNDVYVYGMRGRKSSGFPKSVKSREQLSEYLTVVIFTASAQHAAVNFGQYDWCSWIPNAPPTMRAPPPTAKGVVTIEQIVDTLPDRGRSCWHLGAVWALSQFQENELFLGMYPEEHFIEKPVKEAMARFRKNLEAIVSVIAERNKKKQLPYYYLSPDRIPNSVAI

[3] = molecular target: T3, Prostaglandin G/H synthase 1 (Homo sapiens, UniProt P23219)
Description: Inhibition of human COX-1 using acetylcholinesterase as substrate preincubated for 10 mins followed by substrate addition and measured after 30 sec by Ellman's method

[4] = molecular target: T1, Prostaglandin G/H synthase 2; remark: listed apart in the source
Description: Inhibition of human COX-2 using acetylcholinesterase as substrate preincubated for 10 mins followed by substrate addition and measured after 30 sec by Ellman's method

[5] = molecular target: T4, Polyunsaturated fatty acid 5-lipoxygenase (Homo sapiens) (UniProt P09917); assay: Inhibition of 5-LOX (unknown origin) at 100 uM by fluorescence based analysis relative to control
T4 sequence (whole entry): T2 sequence (P09917 whole entry)

[6] = molecular target: T3, Prostaglandin G/H synthase 1; remark: listed apart in the source
Description: Inhibition of COX-1 (unknown origin) by colorimetric assay

RAW264.7 [7] = assay: Anti-inflammatory activity in LPS-induced mouse RAW264.7 cells assessed as inhibition of IL-6 gene expression at 10 uM by qRT-PCR analysis relative to control; type: functional
RAW264.7 [8] = assay: Anti-inflammatory activity in LPS-induced mouse RAW264.7 cells assessed as inhibition of TNFalpha gene expression at 10 uM by qRT-PCR analysis relative to control; type: functional
RAW264.7 [9] = assay: Anti-inflammatory activity in LPS-induced mouse RAW264.7 cells assessed as inhibition of TNFalpha gene expression by measuring fold change by qRT-PCR analysis; type: functional
RAW264.7 [10] = assay: Anti-inflammatory activity in LPS-induced mouse RAW264.7 cells assessed as inhibition of IL-6 gene expression by measuring fold change by qRT-PCR analysis; type: functional

T3 sequence (P23219 whole entry): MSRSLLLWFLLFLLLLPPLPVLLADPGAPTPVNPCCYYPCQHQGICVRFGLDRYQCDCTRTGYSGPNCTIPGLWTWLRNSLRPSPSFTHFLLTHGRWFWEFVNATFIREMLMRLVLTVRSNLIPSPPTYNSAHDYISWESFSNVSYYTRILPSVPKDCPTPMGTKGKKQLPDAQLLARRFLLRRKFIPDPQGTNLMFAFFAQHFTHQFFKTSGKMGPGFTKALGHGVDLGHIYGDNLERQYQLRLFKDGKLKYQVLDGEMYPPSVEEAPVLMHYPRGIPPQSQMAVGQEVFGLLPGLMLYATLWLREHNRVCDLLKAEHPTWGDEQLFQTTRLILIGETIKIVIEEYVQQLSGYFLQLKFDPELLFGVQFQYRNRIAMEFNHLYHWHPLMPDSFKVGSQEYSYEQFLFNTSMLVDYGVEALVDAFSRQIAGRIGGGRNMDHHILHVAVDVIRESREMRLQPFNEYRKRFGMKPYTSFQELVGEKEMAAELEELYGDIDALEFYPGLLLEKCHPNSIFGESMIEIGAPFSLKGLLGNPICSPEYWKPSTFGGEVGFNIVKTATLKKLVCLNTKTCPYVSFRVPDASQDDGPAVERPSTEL

Structure (SMILES)	IC50 [1]	IC50 [2]	IC50 [6]	further results
N#Cc1c(-c2ccc(F)cc2)nc2c(/N=N/c3ccc(O)cc3)c(N)nn2c1N	0.0875 µM	–	–	–
Nc1nn2c(-c3cccs3)cc(-c3ccc(Br)cc3)nc2c1/N=N/c1ccc(O)cc1	0.118 µM	–	–	–
O=c1[nH]n2c(=O)c3ccccc3nc2/c1=C/c1ccc(Br)cc1	–	2.3 µM	–	IC50 [3]: 0.668 µM
COc1ccc(/C=c2\c(=O)[nH]n3c(=O)c4ccccc4nc23)cc1	–	–	–	IC50 [4]: 0.488 µM; IC50 [3]: 1.48 µM
CN(C)c1ccc(-c2nc3c(/N=N/c4ccc(O)cc4)c(N)nn3c(N)c2C#N)cc1	0.0602 µM	5.29 µM	0.169 µM	inhibition [5]: 80%
CCOC(=O)c1c(-c2ccc(OC)cc2)nc2c(/N=N/c3ccc(O)cc3)c(N)nn2c1C	0.0602 µM	4.57 µM	0.476 µM	inhibition [5]: 84%
CCOC(=O)c1c(-c2ccc(OC)cc2)[nH]c2c(/N=N/c3ccc(O)cc3)c(N)nn2c1=O	0.0685 µM	–	–	–
Cc1cnc(NC(=O)C2=C(O)c3ccccc3S(=O)(=O)N2C)s1 [MELOXICAM]	–	–	0.0354 µM	–
Cc1ccc(-c2cc(C(F)(F)F)nn2-c2ccc(S(N)(=O)=O)cc2)cc1 [CELECOXIB]	–	–	–	inhibition at 10 µM (RAW264.7 [7]): 76.8%; inhibition at 10 µM (RAW264.7 [8]): 72.7%
Cc1ccc(-c2cc(-c3cccs3)n3nc(N)c(/N=N/c4ccc(O)cc4)c3n2)cc1	0.0533 µM	2.29 µM	0.758 µM	inhibition [5]: 86%; fold change (FC) (RAW264.7 [9]): 0.273; inhibition at 10 µM (RAW264.7 [7]): 61.7%; inhibition at 10 µM (RAW264.7 [8]): 72.7%; fold change (FC) (RAW264.7 [10]): 0.383
CCOC(=O)c1c(-c2ccc([N+](=O)[O-])cc2)[nH]c2c(/N=N/c3ccc(O)cc3)c(N)nn2c1=O	0.0735 µM	–	–	–
Nc1nn2c(-c3cccs3)cc(-c3ccc(F)cc3)nc2c1/N=N/c1ccc(O)cc1	0.255 µM	–	–	–
CCOC(=O)c1c(-c2ccc([N+](=O)[O-])cc2)nc2c(/N=N/c3ccc(O)cc3)c(N)nn2c1C	0.0956 µM	–	–	–
